Tests used:
[1] = molecular target: MAP/microtubule affinity-regulating kinase 3 (Homo sapiens) (UniProt P27448); experiment: Inhibition of human full length c-TAK1 expressed in Escherichia coli cell assessed as substrate phosphorylation using fluorescence-labelled peptides as substrate at 0.2 uM after 90 mins by microfluidic peptide phosphorylation assay
[2] = molecular target: MAP kinase p38 (Homo sapiens) (UniProt O15264+Q15759+Q16539+P53778); experiment: Inhibition of human full length p38 beta2 expressed in Escherichia coli cell assessed as substrate phosphorylation using fluorescence-labelled peptides as substrate at 420 uM after 90 mins by microfluidic peptide phosphorylation assay
[3] = molecular target: Insulin-like growth factor 1 receptor (Homo sapiens) (UniProt P08069); experiment: Inhibition of human IGF1R catalytic domain expressed in baculovirus assessed as substrate phosphorylation using fluorescence-labelled peptides as substrate at 9 uM after 90 mins by microfluidic peptide phosphorylation assay
[4] = species: Homo sapiens; experiment: Inhibition of human full length PKA expressed in baculovirus assessed as substrate phosphorylation using fluorescence-labelled peptides as substrate at 2 uM after 90 mins by microfluidic peptide phosphorylation assay
[5] = molecular target: RAC-alpha serine/threonine-protein kinase (Homo sapiens) (UniProt P31749); conditions: 0.06 uM
RAC-alpha serine/threonine-protein kinase (Homo sapiens), sequence (P31749 whole entry, the tested form may be a part): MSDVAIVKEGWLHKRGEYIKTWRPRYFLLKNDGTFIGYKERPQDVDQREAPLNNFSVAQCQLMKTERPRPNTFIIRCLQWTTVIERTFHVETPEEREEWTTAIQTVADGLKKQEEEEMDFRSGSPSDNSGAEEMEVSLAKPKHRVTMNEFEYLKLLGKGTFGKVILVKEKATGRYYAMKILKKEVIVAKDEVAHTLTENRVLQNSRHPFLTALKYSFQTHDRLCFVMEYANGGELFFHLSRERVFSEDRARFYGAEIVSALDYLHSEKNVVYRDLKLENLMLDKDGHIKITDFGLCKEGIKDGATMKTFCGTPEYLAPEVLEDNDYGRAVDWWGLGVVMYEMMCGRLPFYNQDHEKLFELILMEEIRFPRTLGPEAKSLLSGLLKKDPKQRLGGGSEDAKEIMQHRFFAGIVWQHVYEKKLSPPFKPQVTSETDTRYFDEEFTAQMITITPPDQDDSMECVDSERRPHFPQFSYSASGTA
Description: Inhibition of human AKT1 catalytic domain expressed in baculovirus assessed as substrate phosphorylation using fluorescence-labelled peptides as substrate at 0.06 uM after 90 mins by microfluidic peptide phosphorylation assay

[6] = molecular target: Protein kinase C theta type (Homo sapiens) (UniProt Q04759); experiment: Inhibition of human truncated PKC theta expressed in baculovirus assessed as substrate phosphorylation using fluorescence-labelled peptides as substrate at 70 uM after 90 mins by microfluidic peptide phosphorylation assay
Protein kinase C theta type (Homo sapiens), sequence (Q04759 whole entry, looked up, the tested form may be a part): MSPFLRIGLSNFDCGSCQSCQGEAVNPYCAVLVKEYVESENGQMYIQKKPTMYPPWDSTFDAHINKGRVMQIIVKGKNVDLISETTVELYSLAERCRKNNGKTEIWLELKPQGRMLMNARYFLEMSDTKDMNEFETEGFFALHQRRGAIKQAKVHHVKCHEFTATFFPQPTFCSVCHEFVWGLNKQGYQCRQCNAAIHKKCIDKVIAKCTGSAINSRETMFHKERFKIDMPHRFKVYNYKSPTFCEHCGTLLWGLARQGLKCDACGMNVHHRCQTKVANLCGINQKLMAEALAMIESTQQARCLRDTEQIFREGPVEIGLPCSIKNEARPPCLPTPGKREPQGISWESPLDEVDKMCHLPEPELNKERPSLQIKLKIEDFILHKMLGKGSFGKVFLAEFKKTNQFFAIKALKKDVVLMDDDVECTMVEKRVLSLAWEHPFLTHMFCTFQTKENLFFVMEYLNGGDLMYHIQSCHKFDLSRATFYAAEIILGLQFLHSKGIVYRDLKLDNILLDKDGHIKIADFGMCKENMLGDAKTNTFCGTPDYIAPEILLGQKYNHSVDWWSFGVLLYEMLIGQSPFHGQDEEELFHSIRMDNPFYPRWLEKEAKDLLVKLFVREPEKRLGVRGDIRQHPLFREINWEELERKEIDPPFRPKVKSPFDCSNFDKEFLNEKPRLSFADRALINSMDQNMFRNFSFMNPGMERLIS

[7] = molecular target: T1, Cytoplasmic tyrosine-protein kinase BMX (Homo sapiens) (UniProt P51813); experiment: Inhibition of human full length BMX expressed in baculovirus assessed as substrate phosphorylation using fluorescence-labelled peptides as substrate at 1000 uM after 90 mins by microfluidic peptide phosphorylation assay
T1 sequence (whole entry): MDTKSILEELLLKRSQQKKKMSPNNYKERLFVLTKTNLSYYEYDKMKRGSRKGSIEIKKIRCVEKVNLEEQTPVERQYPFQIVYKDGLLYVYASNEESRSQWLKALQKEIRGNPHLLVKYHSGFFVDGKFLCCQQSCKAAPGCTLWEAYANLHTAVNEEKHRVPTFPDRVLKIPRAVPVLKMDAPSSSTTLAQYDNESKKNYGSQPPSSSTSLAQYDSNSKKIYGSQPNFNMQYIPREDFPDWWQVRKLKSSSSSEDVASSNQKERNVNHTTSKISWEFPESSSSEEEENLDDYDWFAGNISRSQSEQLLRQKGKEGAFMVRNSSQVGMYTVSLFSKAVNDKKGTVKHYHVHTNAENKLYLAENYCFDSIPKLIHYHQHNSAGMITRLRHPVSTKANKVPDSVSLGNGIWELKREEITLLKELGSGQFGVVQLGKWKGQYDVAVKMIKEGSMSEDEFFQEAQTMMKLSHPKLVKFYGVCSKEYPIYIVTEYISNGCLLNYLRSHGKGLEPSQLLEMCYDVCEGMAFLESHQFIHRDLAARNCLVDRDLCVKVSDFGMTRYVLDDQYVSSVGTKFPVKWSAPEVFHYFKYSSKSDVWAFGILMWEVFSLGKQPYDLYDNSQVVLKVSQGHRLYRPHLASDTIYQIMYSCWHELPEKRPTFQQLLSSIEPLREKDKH

[8] = molecular target: T2, Aurora kinase A (Homo sapiens) (UniProt O14965); experiment: Inhibition of human full length AurA expressed in baculovirus assessed as substrate phosphorylation using fluorescence-labelled peptides as substrate at 1000 uM after 90 mins by microfluidic peptide phosphorylation assay
T2 sequence (whole entry): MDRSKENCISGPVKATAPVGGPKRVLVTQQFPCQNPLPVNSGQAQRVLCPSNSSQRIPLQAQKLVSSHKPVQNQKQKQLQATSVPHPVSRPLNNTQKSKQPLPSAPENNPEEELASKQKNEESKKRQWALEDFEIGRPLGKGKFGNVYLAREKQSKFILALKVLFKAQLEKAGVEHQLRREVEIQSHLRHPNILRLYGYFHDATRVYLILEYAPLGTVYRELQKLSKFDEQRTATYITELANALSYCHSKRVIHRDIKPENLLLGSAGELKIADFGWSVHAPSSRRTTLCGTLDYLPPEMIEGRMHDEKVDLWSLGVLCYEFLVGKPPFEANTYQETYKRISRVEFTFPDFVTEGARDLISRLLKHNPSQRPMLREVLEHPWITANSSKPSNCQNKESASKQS

[9] = molecular target: T3, Serine/threonine-protein kinase BRSK1 (Homo sapiens) (UniProt Q8TDC3); conditions: 1000 uM
T3 sequence (whole entry): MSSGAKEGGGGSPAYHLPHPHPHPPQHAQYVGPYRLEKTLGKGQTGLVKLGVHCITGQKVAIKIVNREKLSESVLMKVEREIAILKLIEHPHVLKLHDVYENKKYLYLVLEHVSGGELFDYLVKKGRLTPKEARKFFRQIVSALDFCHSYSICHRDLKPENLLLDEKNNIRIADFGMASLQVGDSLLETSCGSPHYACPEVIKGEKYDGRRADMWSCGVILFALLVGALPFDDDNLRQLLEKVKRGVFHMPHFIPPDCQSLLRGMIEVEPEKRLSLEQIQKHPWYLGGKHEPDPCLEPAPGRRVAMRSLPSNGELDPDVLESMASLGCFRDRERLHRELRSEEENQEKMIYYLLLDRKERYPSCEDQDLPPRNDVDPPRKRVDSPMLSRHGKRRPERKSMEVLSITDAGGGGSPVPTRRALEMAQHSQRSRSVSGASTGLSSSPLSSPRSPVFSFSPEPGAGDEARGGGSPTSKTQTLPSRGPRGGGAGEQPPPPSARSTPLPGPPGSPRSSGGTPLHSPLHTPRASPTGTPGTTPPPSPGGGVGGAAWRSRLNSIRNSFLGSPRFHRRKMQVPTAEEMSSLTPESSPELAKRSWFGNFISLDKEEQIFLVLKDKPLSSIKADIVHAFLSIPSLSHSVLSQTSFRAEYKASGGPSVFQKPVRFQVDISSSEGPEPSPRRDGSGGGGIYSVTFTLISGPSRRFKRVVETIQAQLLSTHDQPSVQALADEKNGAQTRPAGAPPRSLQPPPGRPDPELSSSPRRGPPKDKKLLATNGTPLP
Description: Inhibition of human full length BRSK1 expressed in baculovirus assessed as substrate phosphorylation using fluorescence-labelled peptides as substrate at 1000 uM after 90 mins by microfluidic peptide phosphorylation assay

MAP/microtubule affinity-regulating kinase 3 (Homo sapiens), sequence (P27448 whole entry, looked up): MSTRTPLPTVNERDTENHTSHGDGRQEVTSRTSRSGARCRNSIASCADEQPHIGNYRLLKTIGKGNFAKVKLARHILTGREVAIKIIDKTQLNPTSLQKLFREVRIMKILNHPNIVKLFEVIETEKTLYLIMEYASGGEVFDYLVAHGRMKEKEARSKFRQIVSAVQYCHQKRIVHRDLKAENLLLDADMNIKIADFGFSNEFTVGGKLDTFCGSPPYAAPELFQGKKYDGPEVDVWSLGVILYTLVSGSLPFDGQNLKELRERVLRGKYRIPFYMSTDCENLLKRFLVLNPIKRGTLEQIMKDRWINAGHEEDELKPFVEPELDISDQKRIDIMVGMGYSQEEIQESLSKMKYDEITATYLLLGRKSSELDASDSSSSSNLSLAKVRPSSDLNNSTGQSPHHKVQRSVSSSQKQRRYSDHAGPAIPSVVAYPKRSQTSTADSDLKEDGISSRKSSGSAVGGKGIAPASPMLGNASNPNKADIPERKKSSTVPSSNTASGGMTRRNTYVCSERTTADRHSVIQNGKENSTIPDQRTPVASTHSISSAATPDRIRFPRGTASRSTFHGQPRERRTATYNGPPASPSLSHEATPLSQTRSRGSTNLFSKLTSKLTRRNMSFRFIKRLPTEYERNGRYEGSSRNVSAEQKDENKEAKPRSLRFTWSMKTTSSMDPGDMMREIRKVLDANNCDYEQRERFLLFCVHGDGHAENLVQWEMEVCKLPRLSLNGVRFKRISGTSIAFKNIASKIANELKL

Clc1ccc(C2(c3ccc(-c4ncnc5[nH]cnc45)cc3)CCNCC2)cc1
inhibition [1]: 27.5%

c1nc(N2CCOCC2)c2nc[nH]c2n1
inhibition [2]: 1.5%

NCC1CN(c2ncnc3[nH]c4cnccc4c23)CCO1 (centres undefined)
inhibition [3]: 10%

NC1CCN(c2ncnc3[nH]ccc23)CC1
inhibition [4]: 21%

NC1(Cc2ccc(Cl)cc2)CCN(c2ncnc3[nH]ccc23)CC1
inhibition [5]: 34%

CNCc1ccc(-c2ncnc3[nH]cnc23)cc1
inhibition [6]: 67.5%

c1cnc2[nH]ccc2c1
inhibition [7]: 22%
inhibition [8]: 88%
inhibition [9]: 22%

Reference: ChEMBL document CHEMBL3132769, “Fragment growing to retain or alter the selectivity of anchored kinase hinge-binding fragments” (Medchemcomm, 2014)
